Reference: patent US20250346571A1, “BICYCLIC DERIVATIVE PARP INHIBITOR AND USE THEREOF” (XIZANG HAISCO PHARMACEUTICAL CO., LTD., priority 2022, published 2025)

Assay: Pharmacokinetic test in beagle dogs
Format: in vivo
Experimental: 5.1 Experimental animal: male beagle dogs, about 8-11 kg, 6 beagle dogs/compound, purchased from Beijing Marshall Biotechnology Co., Ltd.
5.2 Test method: on the day of the experiment, 6 beagle dogs were randomly grouped according to their body weights. The animals were fasted with water available for 12 to 14 h one day before the administration and were fed 4 h after the administration. The administration was performed according to Table 7.
Before and after the administration, 1 ml of blood was taken from the jugular veins or limb veins, and placed in an EDTAK2 centrifuge tube. The blood was centrifuged at 5000 rpm and 4° C. for 10 min to collect plasma. The blood collection time points for the intravenous administration group and intragastric administration group were 0, 5 min, 15 min, 30 min, 1 h, 2 h, 4 h, 6 h, 8 h, 10 h, 12 h, 24 h and 48 h. Before analysis and detection, all samples were stored at −80° C. The samples were analyzed quantitatively by LC-MS/MS.

[1] = male, dog, iv, beagle dogs, i.v. (0.2 mg/kg), plasma

- pharmacokinetic characteristics in dogs (conclusion in words): good pharmacokinetic characteristics
- AUC(0-t) [1]: 1950 ± 474 ng·h/mL
- clearance [1]: 3.47 ± 0.98 mL/min/kg
- Vd (male, dog, iv, beagle dogs, i.v. (0.2 mg/kg), plasma, read-out: Vdss): 1.52 ± 0.45 L/kg
- bioavailability (male, dog, plasma, po, beagle dogs, i.g. (3 mg/kg)): ≥ 98%
- AUC(0-t) (male, dog, po, beagle dogs, i.g. (3 mg/kg), plasma): 19000 ± 2890 ng·h/mL
SMILES: O=C(NC1CC1)c1ccc(N2CCN(Cc3ccc4nc(C(F)F)c(=O)[nH]c4c3F)CC2)c(F)n1 [Compound 12, N-cyclopropyl-5-(4-((2-(difluoromethyl)-5-fluoro-3-oxo-3,4-dihydroquinoxalin-6-yl)methyl)piperazin-1-yl)-6-fluoropicolinamide]
